The values below come from patent publication US20250205362A1, “LIPID NANOPARTICLES” (NATIONAL UNIVERSITY CORPORATION HOKKAIDO UNIVERSITY, priority 2022, published 2025).

Marks after values point to notes of the source that are not given here.

Data set [1] is described as follows: Average particle diameter, PdI and zeta potential of lipid nanoparticles (dynamic light scattering). The data set is classed as physicochemical. How it is done:
The mean particle diameter (number average value), ζ-mean particle diameter, and polydispersity index (PdI) of the lipid nanoparticles in PBS(−) (pH 7.4), as well as the zeta potential in 10 mM HEPES buffer (pH 7.4), were measured using an analyzing device, Zetasizer Nano ZS ZEN3600 (Malvern), which utilizes dynamic light scattering.

Data set [2] in a line: Encapsulation rate of lipid nanoparticles (Ribogreen). The data set is classed as physicochemical. The procedure: The encapsulation rate of the lipid nanoparticles was calculated by measuring the amount of encapsulated nucleic acid (the amount of ssODN in the case of RNP-ssODN) using an RNA intercalator Ribogreen (manufactured by Life Technologies).
The subject of the next data set is BALB/c mice. Put plainly: Measurement of Fluc activity in tissues after iv Fluc mRNA-loaded lipid nanoparticles. The data set is classed as in vivo, mouse. How it is done: First, lipid nanoparticles encapsulating Fluc mRNA (Fluc mRNA-loaded lipid nanoparticles) were intravenously injected into BALB/c mice (female, 4 weeks old) at a dose of 0.01 mg mRNA/kg body weight. Six hours after intravenous injection, the mice were euthanized, and each tissue was collected, frozen in liquid nitrogen, and stored at −80° C. The tissues were homogenized in passive lysis buffer (Promega) using a bead cell disrupter (Micro Smash MS-100R, TOMY Seiko). Tissue debris was removed by centrifugation and the supernatant was collected. Fluc activity in the supernatant was measured using a luciferase assay system (E1500, Promega) according to the manufacturer's protocol. Luminescence was measured using a luminometer (Luminescencer-PSN, ATTO). The protein concentration was determined using a commercially available measurement kit (BCA Protein Assay Kit, Pierce). Fluc activity was expressed as relative light units (RLU) per mg of protein.

Data set [3] is described as follows: Blood test 24 hours after administration (toxicity). The data set is classed as in vivo, mouse. Particulars: mice. The procedure:
TTR-RNP-ssODN-loaded lipid nanoparticles were intravenously injected to BALB/c mice (female, 4 weeks old) at 2 mg RNP/kg body weight for two consecutive days. One week after the last injection, mice were anesthetized, weighed, and blood was collected. […] Hematological parameters in serum were measured by Oriental Yeast Co., Ltd.
In addition, for mice administered with Fluc mRNA-loaded lipid nanoparticles containing CL4F12-e-4, blood was collected 24 hours after administration and tested for each component. As a control, a blood test was also performed in a similar manner on mice that received PBS instead of the Fluc mRNA-loaded lipid nanoparticles. The results are shown in Table 14 (n=3, unpaired t-test). In the table, TP stands for total protein, AST for aspartate transaminase, ALB for albumin, LDH for […], BUN for blood urea nitrogen, γ-GT for γ-glutamyl transpeptidase, CRE for creatinine, T-CHO for total cholesterol, IP for inorganic phosphate, TG for triglyceride, HDL-C for high-density lipoprotein cholesterol, T-BIL for total bilirubin, and GLU for glucose, respectively. Additionally, ** indicates P<0.01, and * indicates P<0.05.

The subject of a further data set is TTR gene. Put plainly: Measurement of TTR-KO activity (serum TTR protein, ELISA). The data set is classed as in vivo, mouse. The procedure: Lipid nanoparticles encapsulating Cas9/sgTTR-RNP (Cas9/sgTTR-RNP-loaded lipid nanoparticles) were intravenously injected to BALB/c mice (female, 4 weeks old) at the indicated doses. One week after intravenous injection, the mice were euthanized, blood was collected, and serum was isolated by centrifugation. The TTR protein concentration in the serum was determined using a commercially available ELISA kit (Prealbumin ELISA Kit (mouse), Aviva Systems Biology) according to the manufacturer's protocol. The serum TTR protein concentration of untreated mice was taken as 100%, and the relative value (%) of the serum TTR protein concentration of mice administered with each lipid nanoparticle was taken as the knockout activity (TTR-KO activity) of the lipid nanoparticle.

The subject of another data set is dsDNA from the TTR locus. Put plainly: In vitro DNA cleavage activity. The data set is classed as biochemical, mouse. The following applies: n=3. The source says:
Genomic DNA was collected and purified from BALB/c mouse liver tissue using a commercially available nucleic acid extraction kit (NucleoSpin Tissue, MACHEREY-NAGEL) according to the manufacturer's protocol.
The dsDNA from the TTR locus was amplified by PCR (using KAPA HiFi HotStart DNA polymerase (KAPA Biosystems)) using the genomic DNA as a template and the primer set shown in Table 4, and purified using a commercially available nucleic acid purification kit (ISOSPIN PCR Product, Nippon Gene).
The ssODN (5 equivalents relative to […]) was added to Cas9/sgTTR-RNP to form a TTR-RNP-ssODN complex. […] The reaction solution was then heated at 65° C. for 5 minutes to inactivate Cas9-RNP, and the dsDNA was then subjected to electrophoresis on a 3% agarose gel at 100 V for 40 minutes. After electrophoresis, the gel was stained (GelRed, Biotium) and visualized using a fluorescent/visible light gel imaging system (Printgraph CMOS I, ATTO). Bands were quantified using image analysis software (ImageJ).
DNA cleavage was calculated using the following formula: in the formula, Int_full and Int_cleaved indicate the intensities derived from full length (uncleaved) and cleaved DNA, respectively.

The nature of data set [4]: Evaluation of biodistribution (fluorescently labeled RNP-ssODN). The data set is classed as in vivo, mouse. The following applies: mice iv 2 mg RNP/kg, 1 hour; labeled TTR-RNP-ssODN in CL4H6 LNP (ssODN(−): free RNP, no LNP). The procedure: For fluorescent labeling of lipid nanoparticles, the RNP-ssODN solution described above was mixed with a three-fold molar amount of a fluorescent molecule (DyLight 650 NHS ester) in DMSO and incubated for 30 min at ambient temperature in the dark. Unreacted fluorescent molecules were removed by ultrafiltration (Amicon Ultra-0.5, MWCO 3 kDa, Millipore).
Lipid nanoparticles encapsulating the obtained fluorescently labeled RNP-ssODN (fluorescently labeled RNP-ssODN-loaded lipid nanoparticles) were intravenously injected into BALB/c mice (female, 4 weeks old) at 2 mg RNP/kg body weight. One hour after intravenous injection, the mice were euthanized and various tissues, including blood, were collected. The collected blood was immediately diluted with 1% sodium dodecyl sulfate (SDS) solution. The collected tissues were immediately weighed and then homogenized in 1% sodium dodecyl sulfate (SDS) solution. The resulting homogenates were transferred to a black 96-well plate, and fluorescence was measured using a microplate reader (VarioskanLux, Thermo Fisher Scientific) at settings of λex=652 nm and λem=672 nm. Calibration curves were generated using fluorescently labeled RNP-ssODN-loaded lipid nanoparticles and blood or tissue homogenates similarly prepared from untreated mice. Biodistribution was expressed as the percentage of injected dose per tissue or blood (% injected dose).

[5] abbreviates: Fluc mRNA-loaded LNP, CL4F11-e-3/neutral lipid (DSPC or DOPE)/cholesterol/PEG-DMG 50/10/40/0.75 mol%.
Setting [6] is: blood 24 hours after Fluc mRNA-loaded LNP containing CL4F12-e-4, n=3.
Where [7] appears, read: Fluc mRNA-loaded LNP, cationic lipid/DSPC/cholesterol/PEG-DMG 50/10/40/1.5 mol%, Table 5.
Where [8] appears, read: TTR-RNP-ssODN-loaded LNP (ssODN-TTR_3-40%), cationic lipid/DSPC/cholesterol/PEG-DMG 50/10/40/3.5 mol%, Table 8.
[9] abbreviates: TTR-RNP-ssODN-loaded LNP, sgTTR-G211, CL4H6/DSPC/cholesterol/PEG-DMG 50/10/40/3.5 mol%, Table 11.
Setting [10] is: TTR-KO activity in mice, TTR-RNP-ssODN-loaded LNP CL4H6/DSPC/cholesterol/PEG-DMG 50/10/40/3.5 mol%, sgTTR-G211 (TTR_3) or sgTTR-G269 (TTR_4).

In the case of `CCCCCCCC/C=C\CCCCCCCC(=O)OC[C@H](COP(=O)(O)OCCN)OC(=O)CCCCCCC/C=C\CCCCCCCC` [DOPE, 1,2-dioleoyl-sn-glycero-3-phosphoethanolamine], in data set [1] (setting [5]), the Number-average particle diameter is given as 55.7 nm, the PdI worked out at 0.196, the ζ-average amounted to 82.1 nm and the ζ-potential is −2.35 mV. For the same molecule, the Encapsulation rate in data set [2] (setting [5]) amounted to 89.1%. For the same molecule, the “Fluc activity in liver and spleen” value in the data set with BALB/c mice (Example 2, FIG. 3, CL4F11-e-3 LNP with DSPC or DOPE, Balb/c mice) is “stable activity over a wide range of DOPE contents”.
As to `CCCCCCC(CCCC)CCCCC(=O)OCCCCCCC(O)(CCCCCCOC(=O)CCCCC(CCCC)CCCCCC)CCCCN(CCC)CCC` (centres unmarked) [CL4F12-e-4, 7-(4-(dipropylamino)butyl)-7-hydroxytridecane-1,13-diylbis(6-butyldodecanoate)], the “toxicity (blood test)” value in data set [3] (24 hours after Fluc mRNA-loaded LNP) was “no particular toxicity was observed”. In data set [3] (setting [6]), the ALB is reported as 3.3 ± 0.1 g/dL, the ALT is given as 39.3 ± 3.4 IU/L, the AMY is given as 1879.3 ± 136.2** IU/L and the AST is 95.3 ± 3.4** IU/L. Moreover, in data set [3] (setting [6]), the BUN was 25.3 ± 2.8 mg/dL, the CRE is 0.1 ± 0.01 mg/dL, the Ca was 11.9 ± 0.4** mg/dL and the Cl was 98 ± 0 mEq/L. For the same molecule, in data set [3] (setting [6]), the GLU stood at 214 ± 8.2 mg/dL, the HDL-C was 78.7 ± 4.7** mg/dL, the IP stood at 11.1 ± 0.5 mg/dL and the K was determined as 6.9 ± 0.2 mEq/L. Also, in data set [3] (setting [6]), the LDH is on record as 732 ± 39.6 IU/L, the Na came out at 150.7 ± 1.9 mEq/L, the T-BIL came out at 0.03 ± 0.01 mg/dL and the T-CHO was 154.7 ± 8.4** mg/dL. For the same molecule, in data set [3] (setting [6]), the TG is 134 ± 52.8 mg/dL, the TP was found to be 4.9 ± 0.1 g/dL and the γ-GT is 6> IU/L.
In the case of “7-(4-(dipropylamino)butyl)-7-hydroxytridecane-1,13-diylbis(3-hexylnonanoate) [CL4F9-b-6]”, in data set [1] (setting [7]), the Number-average particle diameter amounted to 45.1 nm, the PdI is given as 0.267, the ζ-average turned out to be 81.5 nm and the ζ-potential is reported as −4.32 mV. In data set [1] (setting [8]), this molecule came in with a Number-average particle diameter of 99.6 nm, a PdI of 0.145, a ζ-average of 141.5 nm and a ζ-potential of −0.10 mV. The molecule also came in with an Encapsulation rate in data set [2] (setting [7]) of 91.4%. For the same molecule, the Encapsulation rate in data set [2] (setting [8]) amounted to 84.9%. Also, the “serum TTR activity / gene knockout versus CL4F6” value in the data set with TTR gene (FIG. 5, TTR-RNP-ssODN-loaded LNP, mouse serum 7 days after administration) was “lower serum TTR activity and higher gene knockout”. Besides, the “Fluc activity (gene transfer ability) in liver and spleen” value in the data set on BALB/c mice (Example 1, FIG. 1, Fluc mRNA-loaded LNP 50/10/40/1.5, Balb/c mice iv 0.01 mg mRNA/kg, 6 hours) was “equal to or greater than that of CL4F6”.

B1: ssODN-TTR_3-80%: ssODN pairing with sgTTR-G211, 80% matched; SEQ ID NO 4 (nucleic acid)
DNA: AAAAAAAAAAAAAAAAAAAAAAAAAAAAAAAAAAAAAAAAAAAAAAAAAAAAAAAAAACTGTAGACGTGGCTGTTTAAAAAAAAAAAAAAAAAAAAAAAAAAAAAAAAAAAAAAAAAAAAAAAAAAAAAAAA
For the molecule B1, the “in vitro DNA cleavage activity” value in the data set with dsDNA from the TTR locus (FIG. 7, TTR-RNP-ssODN, sgTTR-G211, 37° C. 30 min) is on record as “extremely low DNA cleavage activity”. For the same molecule, the “relative DNA cleavage activity at 37° C.” value in the data set on dsDNA from the TTR locus (FIG. 22(A), sgTTR-G211 RNP, activity without ssODN = 100%) is recorded as “about 20%”. In data set [1] (setting [9]), the Number-average particle diameter came to 96.8 nm, the PdI is listed as 0.112, the ζ-average worked out at 141.3 nm and the ζ-potential was found to be 2.88 mV. In data set [2] (setting [9]), the Encapsulation rate came out at 69.4%. For the same molecule, in data set [4], the ID %/tissue blood amounted to 11.71 ID %/tissue, the ID %/tissue kidney came to 0.16 ID %/tissue, the ID %/tissue liver is 43.14 ID %/tissue and the ID %/tissue lung was found to be 0.33 ID %/tissue. The same molecule showed an ID %/tissue spleen in data set [4] of 3.21 ID %/tissue. In the data set with TTR gene (setting [10]), the “KO (%) 1st test” value came to 0.3% and the “KO (%) 2nd test” value was 5.6%.

B2: ssODN-TTR_3-0%: ssODN, 0% matched with sgTTR-G211; SEQ ID NO 9 (nucleic acid)
DNA: AAAAAAAAAAAAAAAAAAAAAAAAAAAAAAAAAAAAAAAAAAAAAAAAAAAAAAAAAAAAAATATAAAAAAAAATTAAAAAAAAAAAAAAAAAAAAAAAAAAAAAAAAAAAAAAAAAAAAAAAAAAAAAAAA
As for B2, in data set [1] (setting [9]), the Number-average particle diameter is 67.2 nm, the PdI is 0.192, the ζ-average came to 128.4 nm and the ζ-potential came to 3.49 mV. The molecule also registered an Encapsulation rate in data set [2] (setting [9]) of 89.4%. In data set [4], this molecule registered an ID %/tissue blood of 8.48 ID %/tissue, an ID %/tissue kidney of 0.17 ID %/tissue, an ID %/tissue liver of 31.62 ID %/tissue and an ID %/tissue lung of 0.18 ID %/tissue. The same molecule yielded an ID %/tissue spleen in data set [4] of 4.18 ID %/tissue.
